# Measurements: patent US8952024B2, “Herbicidal pyrimidone derivatives” (E I du Pont de Nemours and Company, priority 2009, dated 2015)
# Columns and labels:
# Assay in all cases: Test B pre-/postemergence plant response
# Type in all cases: in vivo
# kochia (Kochia scoparia) = settings: Postemergence; for Plant response rating, Kochia: scale 0 (no effect) to 100 (complete control)
# Summary of the method: (§1)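 Plants treated either at seeding (loam/sand soil) or postemergence at 2 to 18 cm height, using a surfactant-containing non-phytotoxic solvent formulation. Evaluation was visual after 13 to 15 days, 0 to 100 scale relative to controls.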
# [1] = tested on: blackgrass (Alopecurus myosuroides)
# Summary of the method: as §1
# [2] = tested on: woolly cupgrass (Eriochloa villosa)
# Summary of the method: as §1
# [3] = tested on: green foxtail (Setaria viridis)
# Summary of the method: as §1
# [4] = tested on: yellow nutsedge (Cyperus esculentus)
# Summary of the method: as §1
# corn (Zea mays) = tested on: corn (Zea mays)
# Summary of the method: as §1
# [5] = tested on: Italian ryegrass (Lolium multiflorum)
# Summary of the method: as §1
# [6] = tested on: velvetleaf (Abutilon theophrasti)
# Summary of the method: as §1
# [7] = tested on: lambsquarters (Chenopodium album)
# Summary of the method: as §1
# [8] = tested on: large crabgrass (Digitaria sanguinalis)
# Summary of the method: as §1
# [9] = tested on: ragweed (common ragweed, Ambrosia elatior)
# Summary of the method: as §1
# [10] = tested on: goosegrass (Eleusine indica)
# Summary of the method: as §1
# [11] = tested on: Surinam grass (Brachiaria decumbens)
# Summary of the method: as §1
# [12] = tested on: bermudagrass (Cynodon dactylon)
# Summary of the method: as §1
# [13] = tested on: johnsongrass (Sorghum halepense)
# Summary of the method: as §1
# [14] = tested on: giant foxtail (Setaria faberii)
# Summary of the method: as §1
# [15] = tested on: downy bromegrass (Bromus tectorum)
# Summary of the method: as §1
# [16] = 250 g ai/ha, Preemergence, 0 to 100 scale
# [17] = Postemergence, 31 g ai/ha, scale 0 to 100 (0 no effect, 100 complete control)
# [18] = Postemergence, 62 g ai/ha, scale 0 (no effect) to 100 (complete control), 13 to 15 days
# [19] = Postemergence, 125 g ai/ha, visual rating after 13 to 15 days, scale 0 (no effect) to 100 (complete control)
# [20] = Postemergence, 250 g ai/ha, scale 0 to 100
# [21] = Preemergence, 31 g ai/ha, scale 0 to 100 (0 no effect, 100 complete control)
# [22] = Preemergence, 62 g ai/ha, scale 0 to 100, 0 no effect, 100 complete control
# [23] = Preemergence, 125 g ai/ha, 0 to 100 scale
structure (smiles),measurement,setting,value
O=C1CCCC(O)=C1C(=O)c1cnc(-c2cccc(Cl)c2)n(-c2ccccc2)c1=O [Compound 34],"Plant response rating, Kochia","kochia (Kochia scoparia); 62 g ai/ha, 13 to 15 days",95
same,"Plant response rating, Kochia","kochia (Kochia scoparia); 125 g ai/ha, visual rating after 13 to 15 days",100
same,Kochia plant response rating,"kochia (Kochia scoparia); 250 g ai/ha, scale 0 to 100",100
same,"Plant response rating, Blackgrass",[1]; [16],50
same,"Plant response rating, Blackgrass",[1]; [17],0
same,"Plant response rating, Blackgrass",[1]; [18],5
same,"Plant response rating, Blackgrass",[1]; [19],10
same,Blackgrass plant response rating,[1]; [20],40
same,"Plant response rating, Blackgrass",[1]; [21],0
same,"Plant response rating, Blackgrass",[1]; [22],5
same,Blackgrass plant response rating,[1]; [23],50
same,"Plant response rating, Cupgrass, Woolly",[2]; [16],100
same,"Plant response rating, Cupgrass, Woolly",[2]; [17],80
same,"Plant response rating, Cupgrass, Woolly",[2]; [18],80
same,"Plant response rating, Cupgrass, Woolly",[2]; [19],90
same,"Cupgrass, Woolly plant response rating",[2]; [20],95
same,"Plant response rating, Cupgrass, Woolly",[2]; [21],100
same,"Plant response rating, Cupgrass, Woolly",[2]; [22],100
same,"Cupgrass, Woolly plant response rating",[2]; [23],100
same,"Plant response rating, Foxtail, Green",[3]; [16],100
same,"Plant response rating, Foxtail, Green",[3]; [17],70
same,"Plant response rating, Foxtail, Green",[3]; [18],90
same,"Plant response rating, Foxtail, Green",[3]; [19],90
same,"Foxtail, Green plant response rating",[3]; [20],95
same,"Plant response rating, Foxtail, Green",[3]; [21],50
same,"Plant response rating, Foxtail, Green",[3]; [22],70
same,"Foxtail, Green plant response rating",[3]; [23],90
same,"Plant response rating, Nutsedge, Yellow",[4]; [16],90
same,"Plant response rating, Nutsedge, Yellow",[4]; [18],25
same,"Plant response rating, Nutsedge, Yellow",[4]; [19],55
same,"Plant response rating, Nutsedge, Yellow",[4]; [21],10
same,"Plant response rating, Nutsedge, Yellow",[4]; [22],45
same,"Nutsedge, Yellow plant response rating",[4]; [23],75
same,"Plant response rating, Corn",corn (Zea mays); [16],0
same,"Plant response rating, Corn",corn (Zea mays); [17],0
same,"Plant response rating, Corn",corn (Zea mays); [18],0
same,"Plant response rating, Corn",corn (Zea mays); [19],45
same,Corn plant response rating,corn (Zea mays); [20],50
same,"Plant response rating, Corn",corn (Zea mays); [21],0
same,"Plant response rating, Corn",corn (Zea mays); [22],0
same,Corn plant response rating,corn (Zea mays); [23],0
same,"Plant response rating, Ryegrass, Italian",[5]; [16],10
same,"Plant response rating, Ryegrass, Italian",[5]; [18],10
same,"Plant response rating, Ryegrass, Italian",[5]; [19],20
same,"Plant response rating, Ryegrass, Italian",[5]; [21],0
same,"Plant response rating, Ryegrass, Italian",[5]; [22],0
same,"Ryegrass, Italian plant response rating",[5]; [23],5
same,"Plant response rating, Velvetleaf",[6]; [16],100
same,"Plant response rating, Velvetleaf",[6]; [18],95
same,"Plant response rating, Velvetleaf",[6]; [19],98
same,"Plant response rating, Velvetleaf",[6]; [21],75
same,"Plant response rating, Velvetleaf",[6]; [22],85
same,Velvetleaf plant response rating,[6]; [23],95
same,"Plant response rating, Lambsquarters",[7]; [16],100
same,"Plant response rating, Lambsquarters",[7]; [18],98
same,"Plant response rating, Lambsquarters",[7]; [19],100
same,Lambsquarters plant response rating,[7]; [20],100
same,"Plant response rating, Lambsquarters",[7]; [21],100
same,"Plant response rating, Lambsquarters",[7]; [22],100
same,Lambsquarters plant response rating,[7]; [23],100
same,"Plant response rating, Crabgrass, Large",[8]; [16],100
same,"Plant response rating, Crabgrass, Large",[8]; [17],80
same,"Plant response rating, Crabgrass, Large",[8]; [18],85
same,"Plant response rating, Crabgrass, Large",[8]; [19],95
same,"Crabgrass, Large plant response rating",[8]; [20],98
same,"Plant response rating, Crabgrass, Large",[8]; [21],55
same,"Plant response rating, Crabgrass, Large",[8]; [22],100
same,"Crabgrass, Large plant response rating",[8]; [23],100
same,"Plant response rating, Ragweed",[9]; [16],90
same,"Plant response rating, Ragweed",[9]; [18],85
same,"Plant response rating, Ragweed",[9]; [19],95
same,"Plant response rating, Ragweed",[9]; [21],75
same,"Plant response rating, Ragweed",[9]; [22],80
same,Ragweed plant response rating,[9]; [23],90
same,"Plant response rating, Goosegrass",[10]; [16],100
same,"Plant response rating, Goosegrass",[10]; [18],80
same,"Plant response rating, Goosegrass",[10]; [19],90
same,Goosegrass plant response rating,[10]; [20],95
same,"Plant response rating, Goosegrass",[10]; [21],95
same,Goosegrass plant response rating,[10]; [23],100
same,"Plant response rating, Surinam Grass",[11]; [16],90
same,"Plant response rating, Surinam Grass",[11]; [18],75
same,"Plant response rating, Surinam Grass",[11]; [19],80
same,"Plant response rating, Surinam Grass",[11]; [21],5
same,"Plant response rating, Surinam Grass",[11]; [22],60
same,Surinam Grass plant response rating,[11]; [23],65
same,"Plant response rating, Bermudagrass",[12]; [16],100
same,"Plant response rating, Bermudagrass",[12]; [17],75
same,"Plant response rating, Bermudagrass",[12]; [18],95
same,"Plant response rating, Bermudagrass",[12]; [19],95
same,Bermudagrass plant response rating,[12]; [20],98
same,"Plant response rating, Bermudagrass",[12]; [21],100
same,"Plant response rating, Bermudagrass",[12]; [22],100
same,Bermudagrass plant response rating,[12]; [23],100
same,"Plant response rating, Johnsongrass",[13]; [16],100
same,"Plant response rating, Johnsongrass",[13]; [18],90
same,"Plant response rating, Johnsongrass",[13]; [19],95
same,Johnsongrass plant response rating,[13]; [20],100
same,"Plant response rating, Johnsongrass",[13]; [21],20
same,"Plant response rating, Johnsongrass",[13]; [22],75
same,Johnsongrass plant response rating,[13]; [23],98
same,"Plant response rating, Foxtail, Giant",[14]; [16],100
same,"Plant response rating, Foxtail, Giant",[14]; [17],85
same,"Plant response rating, Foxtail, Giant",[14]; [18],90
same,"Plant response rating, Foxtail, Giant",[14]; [19],95
same,"Foxtail, Giant plant response rating",[14]; [20],95
same,"Plant response rating, Foxtail, Giant",[14]; [21],15
same,"Plant response rating, Foxtail, Giant",[14]; [22],55
same,"Foxtail, Giant plant response rating",[14]; [23],90
same,"Plant response rating, Bromegrass, Downy",[15]; [16],80
same,"Plant response rating, Bromegrass, Downy",[15]; [17],40
same,"Plant response rating, Bromegrass, Downy",[15]; [18],50
same,"Plant response rating, Bromegrass, Downy",[15]; [19],50
same,"Bromegrass, Downy plant response rating",[15]; [20],50
same,"Plant response rating, Bromegrass, Downy",[15]; [22],0
same,"Bromegrass, Downy plant response rating",[15]; [23],10
